Data set [1] addresses T1, Dipeptidyl peptidase 4 (Homo sapiens, UniProt P27487). The experiment in a line: Inhibition of recombinant human DPP4 using H-Gly-Pro-AMC as substrate preincubated for 15 mins followed by substrate addition measured for 20 mins with 1 min interval.
Target sequence in this assay (P27487 whole entry): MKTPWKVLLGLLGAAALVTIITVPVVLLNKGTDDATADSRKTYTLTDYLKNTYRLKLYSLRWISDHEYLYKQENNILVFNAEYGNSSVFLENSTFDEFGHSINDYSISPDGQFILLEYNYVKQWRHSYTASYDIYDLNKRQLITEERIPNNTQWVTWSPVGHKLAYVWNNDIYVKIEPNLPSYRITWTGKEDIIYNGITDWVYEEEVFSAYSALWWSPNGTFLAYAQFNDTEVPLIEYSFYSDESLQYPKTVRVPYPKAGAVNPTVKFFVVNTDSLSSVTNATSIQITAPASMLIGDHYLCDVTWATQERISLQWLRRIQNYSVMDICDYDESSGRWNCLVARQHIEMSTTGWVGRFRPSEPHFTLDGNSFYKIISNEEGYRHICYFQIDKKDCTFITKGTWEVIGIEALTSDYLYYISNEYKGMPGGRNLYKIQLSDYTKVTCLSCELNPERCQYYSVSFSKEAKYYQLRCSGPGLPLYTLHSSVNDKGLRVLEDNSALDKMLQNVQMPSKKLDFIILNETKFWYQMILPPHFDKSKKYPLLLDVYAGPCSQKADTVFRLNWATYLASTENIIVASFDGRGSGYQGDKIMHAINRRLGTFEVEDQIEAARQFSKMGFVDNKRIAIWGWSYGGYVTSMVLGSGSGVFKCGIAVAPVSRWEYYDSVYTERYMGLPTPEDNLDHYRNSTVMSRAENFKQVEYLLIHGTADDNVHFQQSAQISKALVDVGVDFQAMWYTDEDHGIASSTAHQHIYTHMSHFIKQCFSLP
Data set [2] has as its target T2, Dipeptidyl peptidase 4 (Sus scrofa, UniProt P22411). The experiment in a line: Inhibition of porcine DPP4 after 30 mins by luminescence assay.
Data set [3] can be described thus: Elimination half life in human. Particulars: in vivo.
The target in data set [4] is T1, Dipeptidyl peptidase 4. The experiment in a line: Inhibition of recombinant human DPP4 expressed in baculovirus expression system using Ala-Pro-AMC as substrate by fluorometric analysis.
Target sequence in this assay (P27487 whole entry): as above
Data set [5] deals with T1, Dipeptidyl peptidase 4. Kind of data set: Inhibition of recombinant human DPP4 pre-incubated for 30 mins before Gly-Pro-Aminomethylcoumarin substrate addition.
Target sequence in this assay (P27487 whole entry): as above
Data set [6] addresses T1, Dipeptidyl peptidase 4. The experiment in a line: Inhibition of recombinant human DPP4 using Gly-Pro-AMC as substrate after 30 mins by fluorescence assay.
Target sequence in this assay (P27487 whole entry): as above
The target of data set [7] is T1, Dipeptidyl peptidase 4. The experiment in a line: Inhibition of recombinant human DPP4 using Gly-Pro-AMC as substrate after 1 hr by fluorescence assay.
Target sequence in this assay (P27487 whole entry): as above
Data set [8] concerns the target T1, Dipeptidyl peptidase 4. Kind of data set: Inhibition of recombinant human DPP4 using H-Gly-Pro-AMC as substrate after 30 mins by fluorometric analysis.
Target sequence in this assay (P27487 whole entry): as above
For data set [9], the target named is T1, Dipeptidyl peptidase 4. The experiment in a line: Inhibition of DPP4 (unknown origin).
Target sequence in this assay (P27487 whole entry, looked up): as the sequence (P27487 whole entry) above
Data set [10] concerns the target T2, Dipeptidyl peptidase 4. The experiment in a line: Inhibition of porcine kidney DPP4.
The target of data set [11] is T1, Dipeptidyl peptidase 4. Kind of data set: Inhibition of DPP4 (unknown origin) using Gly-Pro-AMC as substrate preincubated for 4 secs followed by substrate addition and measured after 30 mins by […] assay.
The target of data set [12] is T1, Dipeptidyl peptidase 4. The experiment in a line: Inhibition of DPP4 (unknown origin) using Gly-Pro-pNA as substrate after 60 mins.

We go through 44 compounds from ChEMBL document CHEMBL4229387, “Recent progress of the development of dipeptidyl peptidase-4 inhibitors for the treatment of type 2 diabetes mellitus” (Eur J Med Chem, 2018).

pIC50: −log10 of the molar value. Peptide text beside a SMILES is read from it.

T2 sequence (P22411 whole entry): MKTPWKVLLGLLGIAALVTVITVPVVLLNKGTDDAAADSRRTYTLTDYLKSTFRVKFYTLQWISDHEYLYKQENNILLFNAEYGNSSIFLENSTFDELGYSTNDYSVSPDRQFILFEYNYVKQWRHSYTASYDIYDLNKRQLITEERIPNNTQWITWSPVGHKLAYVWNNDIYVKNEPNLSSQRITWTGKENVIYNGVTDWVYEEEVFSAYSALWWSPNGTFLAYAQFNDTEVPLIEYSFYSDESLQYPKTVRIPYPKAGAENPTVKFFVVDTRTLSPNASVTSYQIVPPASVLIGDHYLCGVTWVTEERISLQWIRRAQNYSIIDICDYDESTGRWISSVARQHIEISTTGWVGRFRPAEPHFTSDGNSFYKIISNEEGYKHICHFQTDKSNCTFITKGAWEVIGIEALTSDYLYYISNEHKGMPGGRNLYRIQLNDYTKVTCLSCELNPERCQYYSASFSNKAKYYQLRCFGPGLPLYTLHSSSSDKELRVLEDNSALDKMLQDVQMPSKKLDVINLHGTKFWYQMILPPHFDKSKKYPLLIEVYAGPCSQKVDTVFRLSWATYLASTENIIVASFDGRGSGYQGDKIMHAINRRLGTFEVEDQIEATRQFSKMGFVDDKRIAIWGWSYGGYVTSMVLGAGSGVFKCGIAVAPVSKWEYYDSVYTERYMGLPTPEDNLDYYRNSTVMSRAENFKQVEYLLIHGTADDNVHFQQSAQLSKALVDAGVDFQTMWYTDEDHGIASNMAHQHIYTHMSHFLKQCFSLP

The pIC50 is the IC50 on a negative log10 scale, so that one unit is a factor of ten. On to `O=C(N/N=C/c1cccc2ccccc12)c1[nH]nc2c1CCCC2`, for which the negative-log IC50 (pIC50) in data set [1] was 5.46.

`O=C1CC(c2ccc(O)cc2)Oc2cc(O)cc(O)c21` (centres undefined) showed a negative-log IC50 (pIC50) in data set [2] of 5.60.

As a reminder, the half-life is the time needed for the level to fall by half in the phase considered. Low values mean fast loss, high ones slow loss. `N#C[C@@H]1C[C@@H]2C[C@@H]2N1C(=O)[C@@H](N)C12CC3CC(CC(C3)C1)C2` gave a half-life in data set [3] of 2 to 4 h.

As to `CC1(C)CCC(=O)N(C[C@@H](N)CC(=O)N2CCc3c(nc(C(F)(F)F)nc3C(F)(F)F)C2)C1`, the half-life in data set [3] was 16.7 to 21.3 h.

Regarding `Cc1cc(-c2cn([C@@H]3CN[C@H](C(=O)N4CCC(F)(F)C4)C3)nn2)ccc1F`, the negative logarithm of the IC50 (pIC50) in [4] was 5.88.

For `COC(=O)c1cn([C@@H]2CN[C@H](C(=O)N3CCC(F)(F)C3)C2)nn1`, the pIC50 in [4] is 6.14.

For the compound `CC(C)=CCn1c(N2CCCC(N)C2)nc2c1c(=O)n(Cc1ccccc1C#N)c(=O)n2C` (centres undefined), the pIC50 in data set [5] is 7.71.

Regarding `Brc1nc2n(n1)CC(c1cc3ccccc3o1)=NN2`, the negative logarithm of the IC50 (pIC50) in data set [6] was 4.55.

As to `O=C(N/N=C/c1c(O)ccc2ccccc12)c1n[nH]c2c1CCCC2`, the pIC50 in data set [1] is 5.67.

Consider `O=C([C@@H]1C[C@H](n2cc(-c3ccccc3)nn2)CN1)N1CCC(F)(F)C1`, for which, in data set [4], the negative logarithm of the IC50 (pIC50) was 6.18.

As for `N[C@@H](CCn1cc(-c2ccncc2)nn1)Cc1cc(F)c(F)cc1F`, the negative logarithm of the IC50 (pIC50) in data set [7] was 7.85.

For `O=C(CNC(=O)C1CCCN(S(=O)(=O)c2ccccc2)C1)Nc1ccc(Cl)cc1` (centres undefined), the negative logarithm of the IC50 (pIC50) in [8] was 7.02.

`CC#CCn1c(N2CCC[C@@H](N)C2)cc(=O)n(Cc2cn(CCC(=O)OC)nn2)c1=O` had a pIC50 in data set [9] of 7.19.

As to `CC[C@H](C)[C@H](N)C(=O)N[C@@H](CC(C)C)C(=O)N[C@@H](C)C(=O)N1CCC[C@H]1C(=O)O` (H-ILAP-OH), the pIC50 in data set [10] is 3.80 to 4.37.

In turn, `CC(C)C[C@H](NC(=O)[C@@H](N)CC(C)C)C(=O)N[C@@H](C)C(=O)N1CCC[C@H]1C(=O)O` (H-LLAP-OH) gave a pIC50 in [10] of 3.80 to 4.37.

`Cn1c(=O)cc(N2CCC[C@@H](N)C2)n(Cc2ccccc2C#N)c1=O` [ALOGLIPTIN]: the half-life in data set [3] was 21.1 h.

As to `Cc1cc2ncc(C(=O)NCC(C)(C)NCC(=O)N3CCC[C@H]3C#N)cn2n1` [ANAGLIPTIN], the half-life in [3] fell in the range of 5.8 to 6.2 h.

In [11], `O=c1cc(-c2ccc(O)cc2)oc2cc(O)cc(O)c12` [APIGENIN] showed a pIC50 of 6.85.

With `O=C(O)/C=C/c1ccc(O)c(O)c1` [CAFFEIC ACID], the negative-log IC50 (pIC50) in [11] is 5.47.

`COc1cc2oc(-c3ccc(O)cc3)cc(=O)c2c(O)c1OC` [CIRSIMARITIN] showed a pIC50 in data set [2] of 6.37.

`Oc1cc(O)c2cc(O)c(-c3ccc(O)c(O)c3)[o+]c2c1` [CYANIDIN CHLORIDE] gave a negative-log IC50 (pIC50) in data set [11] of 5.85.

In [11], `O=C(O[C@@H]1Cc2c(O)cc(O)cc2O[C@@H]1c1cc(O)c(O)c(O)c1)c1cc(O)c(O)c(O)c1` [EPIGALOCATECHIN GALLATE] showed a negative-log IC50 (pIC50) of 4.99.

In [11], `C[C@@H]1O[C@@H](OC[C@H]2O[C@@H](Oc3cc(O)c4c(c3)O[C@H](c3ccc(O)c(O)c3)CC4=O)[C@H](O)[C@@H](O)[C@@H]2O)[C@H](O)[C@H](O)[C@H]1O` [ERIOCITRIN] gave a pIC50 of 4.98.

With `CC(C)(C)OC[C@@H]1C(=O)NCCN1C(=O)C[C@H](N)Cc1cc(F)c(F)cc1F` [EVOGLIPTIN], the half-life in [3] was in the range of 32.5 to 39.8 h.

`O=c1cc(-c2ccccc2)oc2ccccc12` [FLAVONE] gave a pIC50 in data set [11] of 6.77.

`O=C(O)c1cc(O)c(O)c(O)c1` [GALLIC ACID]: the pIC50 in [11] was 5.33.

In the case of `O=c1c(-c2ccc(O)cc2)coc2cc(O)cc(O)c12` [GENISTEIN], in [11], the negative logarithm of the IC50 (pIC50) was 6.32.

`O=C([C@@H]1C[C@H](N2CCN(c3ncccn3)CC2)CN1)N1CCC(F)(F)C1` [GOSOGLIPTIN] gave a half-life in data set [3] of 63.5 h.

For the compound `COc1ccc([C@@H]2CC(=O)c3c(O)cc(O)cc3O2)cc1O` [HESPERETIN], the pIC50 in [11] was 6.55.

As to `COc1c(O)cc2oc(-c3ccc(O)cc3)cc(=O)c2c1O` [HISPIDULIN], the pIC50 in data set [2] is 6.31.

The compound `O=c1c(O)c(-c2ccc(O)cc2)oc2cc(O)cc(O)c12` [KAEMPFEROL] had a pIC50 in [11] of 6.31.

As to `OC[C@H]1O[C@@H](Oc2cc3c(O)cc(O)cc3[o+]c2-c2ccc(O)c(O)c2)[C@H](O)[C@@H](O)[C@@H]1O` [KUROMANIN], the negative logarithm of the IC50 (pIC50) in [11] was 6.38.

In turn, `CC#CCn1c(N2CCC[C@@H](N)C2)nc2c1c(=O)n(Cc1nc(C)c3ccccc3n1)c(=O)n2C` [LINAGLIPTIN] showed a half-life in data set [3] of 10 to 40 h.

`O=c1cc(-c2ccc(O)c(O)c2)oc2cc(O)cc(O)c12` [LUTEOLIN] had a pIC50 in data set [11] of 6.92.

In [11], `COc1cc(-c2[o+]c3cc(O)cc(O)c3cc2O)cc(OC)c1O` [MALVIDIN CHLORIDE] showed a pIC50 of 5.85.

For the compound `O=C1C[C@@H](c2ccc(O)cc2)Oc2cc(O)cc(O)c21` [NARINGENIN], the negative-log IC50 (pIC50) in data set [11] was 6.62.

In turn, `CS(=O)(=O)n1cc2c(n1)CN([C@H]1CO[C@H](c3cc(F)ccc3F)[C@@H](N)C1)C2` [OMARIGLIPTIN] registered a half-life in data set [3] of 11 to 22 h.

`O=c1c(O)c(-c2ccc(O)c(O)c2)oc2cc(O)cc(O)c12` [QUERCETIN] had a negative logarithm of the IC50 (pIC50) in data set [11] of 5.53.

In turn, `Oc1ccc(/C=C/c2cc(O)cc(O)c2)cc1` [RESVERATROL] showed a negative-log IC50 (pIC50) in data set [11] of 9.22.

For `N[C@@H](CC(=O)N1CCn2c(nnc2C(F)(F)F)C1)Cc1cc(F)c(F)cc1F` [SITAGLIPTIN], the half-life in data set [3] was in the range of 8 to 24 h.

`Cc1cc(N2CCN([C@@H]3CN[C@H](C(=O)N4CCSC4)C3)CC2)n(-c2ccccc2)n1` [TENELIGLIPTIN] had a half-life in [3] of 26.9 h.

As to `Cn1c(=O)cc(N2CCC[C@@H](N)C2)n(Cc2cc(F)ccc2C#N)c1=O` [TRELAGLIPTIN], in data set [3], the half-life fell in the range of 38.4 to 54.3 h.

For the compound `CC(C)[C@H](N)C(=O)N[C@@H](Cc1c[nH]c2ccccc12)C(=O)O` [VALYLTRYPTOPHAN] (H-Val-Trp-OH), the negative-log IC50 (pIC50) in data set [12] was 4.18.

Regarding H-MAGVDHI-OH, in data set [10], the pIC50 is 3.80 to 4.37.
